Source: ChEMBL document CHEMBL1135811, “4-(Phenylsulfonyl)piperidines: novel, selective, and bioavailable 5-HT(2A) receptor antagonists” (J Med Chem, 2002)

Experiments:
Type in all cases: ADME, organism-based
[1] = Bioavailability; settings: eutheria, in vivo
[2] = Area under concentration-time curve for 0-4 hr after oral dose of 10 mg/kg; parameters: time < 4 hr, dose 10 mg/kg, route oral; settings: in vivo
[3] = Mean residence time following intravenous dosing; settings: in vivo
[4] = Maximum blood concentration after oral dose of 10 mg/kg; parameters: dose 10 mg/kg, route oral
[5] = Area under concentration-time curve for 0-4 hr after oral dose of 2.0 mg/kg; parameters: time < 4 hr, dose 2 mg/kg, route oral; settings: in vivo
[6] = Maximum blood concentration after oral dose of 2.0 mg/kg; parameters: dose 2 mg/kg, route oral
[7] = (§1) Area under concentration-time curve for 0-4 hr after oral dose of […]; parameters: time < 4 hr, dose 1.5 mg/kg, route oral; settings: in vivo
[8] = (§2) Maximum blood concentration after oral dose of […]; parameters: dose 1.5 mg/kg, route oral
[9] = Maximum blood concentration after oral dose 1 mg/kg; parameters: dose 1 mg/kg, route oral
[10] = Area under concentration-time curve for 0-4 hr after oral dose 1 mg/kg; parameters: time < 4 hr, dose 1 mg/kg, route oral; settings: in vivo
[11] = as §2; parameters: dose 1.2 mg/kg, route oral
[12] = as §1; parameters: time < 4 hr, dose 1.2 mg/kg, route oral; settings: in vivo

bioavailability [1] [%] | MRT [3] [h] | Cmax [9] [ng/mL] | AUC(0-t) at 4 h [10] [ng·h/mL] | further results | SMILES
2 | 1 | – | – | AUC(0-t) at 4 h [2]: 100 ng·h/mL; Cmax [4]: 23 ng/mL | O=S(=O)(c1ccccc1)C1CCN(CCc2ccc(F)cc2F)CC1
– | – | – | – | AUC(0-t) at 4 h [5]: 3 ng·h/mL; Cmax [6]: 2 ng/mL | OC1c2ccccc2CCC12CCN(CCc1ccccc1)CC2 (stereo unspecified)
– | 1.5 | – | – | AUC(0-t) at 4 h [7]: 4 ng·h/mL; Cmax [8]: 2 ng/mL | COc1ccc2c(c1)CCC1(CCN(CCc3ccc(F)cc3F)CC1)O2
24 | 1.1 | 38 | 115 | – | NC(=O)c1cccc(S(=O)(=O)C2CCN(CCc3ccc(F)cc3F)CC2)c1
– | – | – | – | AUC(0-t) at 4 h [5]: 1 ng·h/mL; Cmax [6]: 1 ng/mL | O=S1(=O)c2ccccc2CCC12CCN(CCc1ccc(F)cc1F)CC2
30 | 0.7 | 140 | 171 | – | O=C(CN1CCC(S(=O)(=O)c2ccccc2)CC1)c1ccc(F)cc1
22 | 0.9 | 70 | 199 | – | NC(=O)c1ccc(S(=O)(=O)C2CCN(CCc3ccc(F)cc3F)CC2)cc1
23 | 2.3 | 30 | 177 | – | N#Cc1ccc(S(=O)(=O)C2CCN(CCc3ccc(F)cc3F)CC2)cc1
3 | 1 | – | – | Cmax [11]: 2 ng/mL; AUC(0-t) at 4 h [12]: 8 ng·h/mL | COc1cccc([C@H](O)C2CCN(CCc3ccc(F)cc3)CC2)c1OC [VOLINANSERIN]
